Test results published in ChEMBL document CHEMBL6134827, “The discovery of novel antimicrobial peptides against drug-resistant bacteria based on fragments fusion strategy” (Eur J Med Chem, 2025).
Starred links: 1 amine or outer side, 2 acyl side, 3 side chain; linkers in the order of their positions; H or OH if unused. Non-standard residues stand in square brackets, D forms with d. Residues, ends and D or L forms follow the SMILES beside them. Groups on a side chain read outwards from the residue. εLys = N[C@@H](CCCCN[*:1])C(=O)[*:2]; Dab = NCC[C@H](N)C(=O)O

Key:
Assay type in all cases: functional
[1] = system: Staphylococcus aureus; assay: Antimicrobial activity against Staphylococcus aureus ATCC 29213 assessed as inhibition of visible microbial growth incubated for 18 hrs by broth microdilution method
[2] = system: Acinetobacter baumannii; assay: Antimicrobial activity against multidrug resistant Acinetobacter baumannii assessed as inhibition of visible microbial growth incubated for 18 hrs by broth microdilution method
[3] = system: Escherichia coli; assay: Antimicrobial activity against Escherichia coli ATCC 25922 assessed as inhibition of visible microbial growth incubated for 18 hrs by broth microdilution method
[4] = system: Pseudomonas aeruginosa; assay: Antimicrobial activity against multidrug resistant Pseudomonas aeruginosa assessed as inhibition of visible microbial growth incubated for 18 hrs by broth microdilution method
[5] = system: Escherichia coli; assay: Antimicrobial activity against multidrug resistant Escherichia coli assessed as inhibition of visible microbial growth incubated for 18 hrs by broth microdilution method
[6] = system: Staphylococcus aureus; assay: Antimicrobial activity against multidrug resistant Staphylococcus aureus assessed as inhibition of visible microbial growth incubated for 18 hrs by broth microdilution method

CC(C)C[C@H](NC(=O)CN)C(=O)N[C@@H](CCCNC(=N)N)C(=O)N[C@@H](CCCCN)C(=O)N[C@@H](Cc1c[nH]c2ccccc12)C(=O)N[C@@H](CC(C)C)C(=O)N[C@@H](CCCNC(=N)N)C(=O)N[C@@H](CCCCN)C(=O)N[C@@H](Cc1ccccc1)C(=O)N[C@@H](CCCCN)C(=O)NCCCC[C@H](N)C(=O)N[C@@H](Cc1ccccc1)C(=O)N[C@@H](Cc1c[nH]c2ccccc12)C(=O)O (H-GLRKWLRKFK[εLys]FW-OH)
MIC [1]: 17.9 µM | MIC [2]: 17.9 µM | MIC [3]: 4.5 µM | MIC [4]: 8.9 µM | MIC [5]: 35.7 µM | MIC [6]: 17.9 µM

CC(C)C[C@H](NC(=O)CN)C(=O)N[C@@H](CCCNC(=N)N)C(=O)NCCCC[C@H](N)C(=O)N[C@@H](Cc1c[nH]c2ccccc12)C(=O)N[C@@H](CC(C)C)C(=O)N[C@@H](CCCNC(=N)N)C(=O)N[C@@H](CCCCN)C(=O)N[C@@H](Cc1ccccc1)C(=O)N[C@@H](CCCCN)C(=O)N[C@@H](CCCCN)C(=O)N[C@@H](Cc1ccccc1)C(=O)N[C@@H](Cc1c[nH]c2ccccc12)C(=O)O (H-K([Arg-Leu-Gly])WLRKFKKFW-OH)
MIC [1]: 35.7 µM | MIC [2]: 35.7 µM | MIC [3]: 8.9 µM | MIC [4]: 8.9 µM | MIC [5]: 35.7 µM | MIC [6]: 35.7 µM

H-GLRKFLRKFKKFWK-OH
MIC [1]: 34 µM | MIC [2]: 8.5 µM | MIC [3]: 8.5 µM | MIC [4]: 17 µM | MIC [5]: 17 µM | MIC [6]: 34 µM

CC(C)C[C@H](NC(=O)CN)C(=O)N[C@@H](CCCNC(=N)N)C(=O)N[C@@H](CCCCN)C(=O)N[C@@H](Cc1c[nH]c2ccccc12)C(=O)N[C@@H](CC(C)C)C(=O)N[C@@H](CCCNC(=N)N)C(=O)N[C@@H](CCN)C(=O)N[C@@H](Cc1ccccc1)C(=O)N[C@@H](CCN)C(=O)N[C@@H](CCN)C(=O)N[C@@H](Cc1ccccc1)C(=O)N[C@@H](Cc1c[nH]c2ccccc12)C(=O)O (H-GLRKWLR[Dab]F[Dab][Dab]FW-OH)
MIC [1]: 4.7 µM | MIC [2]: 4.7 µM | MIC [3]: 9.4 µM | MIC [4]: 4.7 µM | MIC [5]: 4.7 µM | MIC [6]: 9.4 µM

CC(C)C[C@H](NC(=O)CN)C(=O)N[C@@H](CCCNC(=N)N)C(=O)N[C@@H](CCCCN)C(=O)N[C@@H](Cc1c[nH]c2ccccc12)C(=O)N[C@@H](CC(C)C)C(=O)N[C@@H](CCCNC(=N)N)C(=O)N[C@@H](CCCCN)C(=O)N[C@@H](Cc1ccccc1)C(=O)NCCCC[C@H](N)C(=O)N[C@@H](CCCCN)C(=O)N[C@@H](Cc1ccccc1)C(=O)N[C@@H](Cc1c[nH]c2ccccc12)C(=O)O (H-GLRKWLRKF[εLys]KFW-OH)
MIC [1]: 17.9 µM | MIC [2]: 17.9 µM | MIC [3]: 8.9 µM | MIC [4]: 8.9 µM | MIC [5]: 35.7 µM | MIC [6]: 17.9 µM

CC(C)C[C@H](NC(=O)CN)C(=O)N[C@@H](CCCNC(=N)N)C(=O)N[C@@H](CCCCN)C(=O)N[C@@H](Cc1c[nH]c2ccccc12)C(=O)N[C@@H](CC(C)C)C(=O)N[C@@H](CCCNC(=N)N)C(=O)N[C@@H](CCCCN)C(=O)N[C@@H](Cc1ccccc1)C(=O)N[C@@H](CCN)C(=O)N[C@@H](CCCCN)C(=O)N[C@@H](Cc1ccccc1)C(=O)N[C@@H](Cc1c[nH]c2ccccc12)C(=O)O (H-GLRKWLRKF[Dab]KFW-OH)
MIC [1]: 18.1 µM | MIC [2]: 4.5 µM | MIC [3]: 9.1 µM | MIC [4]: 4.5 µM | MIC [5]: 4.5 µM | MIC [6]: 18.1 µM

CC(C)C[C@H](NC(=O)CN)C(=O)N[C@@H](CCCNC(=N)N)C(=O)N[C@H](CCCCN)C(=O)N[C@@H](Cc1c[nH]c2ccccc12)C(=O)N[C@@H](CC(C)C)C(=O)N[C@@H](CCCNC(=N)N)C(=O)N[C@@H](CCN)C(=O)N[C@@H](Cc1ccccc1)C(=O)N[C@@H](CCCCN)C(=O)N[C@@H](CCCCN)C(=O)N[C@@H](Cc1ccccc1)C(=O)N[C@@H](Cc1c[nH]c2ccccc12)C(=O)O
MIC [1]: 18.1 µM | MIC [2]: 4.5 µM | MIC [3]: 18.1 µM | MIC [4]: 4.5 µM | MIC [5]: 9.1 µM | MIC [6]: 18.1 µM

CC(C)C[C@H](NC(=O)CN)C(=O)N[C@@H](CCCNC(=N)N)C(=O)N[C@@H](CCN)C(=O)N[C@@H](Cc1c[nH]c2ccccc12)C(=O)N[C@@H](CC(C)C)C(=O)N[C@@H](CCCNC(=N)N)C(=O)N[C@@H](CCCCN)C(=O)N[C@@H](Cc1ccccc1)C(=O)N[C@@H](CCCCN)C(=O)N[C@@H](CCCCN)C(=O)N[C@@H](Cc1ccccc1)C(=O)N[C@@H](Cc1c[nH]c2ccccc12)C(=O)O (H-GLR[Dab]WLRKFKKFW-OH)
MIC [1]: 18.1 µM | MIC [2]: 4.5 µM | MIC [3]: 9.1 µM | MIC [4]: 4.5 µM | MIC [5]: 9.1 µM | MIC [6]: 18.1 µM

CC(C)C[C@H](NC(=O)CN)C(=O)N[C@@H](CCCNC(=N)N)C(=O)N[C@@H](CCCCN)C(=O)N[C@@H](Cc1c[nH]c2ccccc12)C(=O)N[C@@H](CC(C)C)C(=O)N[C@@H](CCCNC(=N)N)C(=O)NCCCC[C@H](N)C(=O)N[C@@H](Cc1ccccc1)C(=O)N[C@@H](CCCCN)C(=O)N[C@@H](CCCCN)C(=O)N[C@@H](Cc1ccccc1)C(=O)N[C@@H](Cc1c[nH]c2ccccc12)C(=O)O (H-GLRKWLR[εLys]FKKFW-OH)
MIC [1]: 35.7 µM | MIC [2]: 35.7 µM | MIC [3]: 17.9 µM | MIC [4]: 17.9 µM | MIC [5]: 35.7 µM | MIC [6]: 35.7 µM

CC(C)C[C@H](NC(=O)CN)C(=O)N[C@@H](CCCNC(=N)N)C(=O)N[C@@H](CCCCN)C(=O)N[C@@H](Cc1c[nH]c2ccccc12)C(=O)N[C@@H](CC(C)C)C(=O)N[C@@H](CCCNC(=N)N)C(=O)N[C@@H](CCCCN)C(=O)N[C@@H](Cc1ccccc1)C(=O)N[C@@H](CCN)C(=O)N[C@@H](CCN)C(=O)N[C@@H](Cc1ccccc1)C(=O)N[C@@H](Cc1c[nH]c2ccccc12)C(=O)O (H-GLRKWLRKF[Dab][Dab]FW-OH)
MIC [1]: 18.4 µM | MIC [2]: 4.6 µM | MIC [3]: 9.2 µM | MIC [4]: 4.6 µM | MIC [5]: 9.2 µM | MIC [6]: 9.2 µM

H-GLRKRLRKFKKFGK-OH
MIC [1]: 72.7 µM | MIC [2]: 72.7 µM | MIC [3]: 72.7 µM | MIC [4]: > 72.7 µM | MIC [5]: 72.7 µM | MIC [6]: > 72.7 µM

CC(C)C[C@H](NC(=O)CN)C(=O)N[C@@H](CCCNC(=N)N)C(=O)N[C@@H](CCCCN)C(=O)N[C@@H](Cc1c[nH]c2ccccc12)C(=O)N[C@@H](CC(C)C)C(=O)N[C@@H](CCCNC(=N)N)C(=O)N[C@@H](CCCCN)C(=O)N[C@@H](Cc1ccccc1)C(=O)N[C@@H](CCCCN)C(=O)N[C@@H](CCN)C(=O)N[C@@H](Cc1ccccc1)C(=O)N[C@@H](Cc1c[nH]c2ccccc12)C(=O)O (H-GLRKWLRKFK[Dab]FW-OH)
MIC [1]: 9.1 µM | MIC [2]: 4.5 µM | MIC [3]: 9.1 µM | MIC [4]: 4.5 µM | MIC [5]: 4.5 µM | MIC [6]: 18.1 µM

H-GLRKFLRKFKKFGK-OH
MIC [1]: 36.5 µM | MIC [2]: 36.5 µM | MIC [3]: 18.2 µM | MIC [4]: 73 µM | MIC [5]: 36.5 µM | MIC [6]: 73 µM

H-GLRKWLRKFKKFWK-OH
MIC [1]: 16.6 µM | MIC [2]: 8.3 µM | MIC [3]: 8.3 µM | MIC [4]: 8.3 µM | MIC [5]: 8.3 µM | MIC [6]: 16.6 µM
